{"source": "patent US12599608B2", "about": "“Methods for treating cardiac valve disease” (The Regents of the University of California, priority 2018, dated 2026)", "key": {"N1^+/− iPSC-derived ECs": {"system": "N1^+/− iPSC-derived ECs", "experiment": "Network-based small molecule screen by targeted RNA-seq of 119 genes (KNN and hierarchical clustering)", "format": "cell-based, human", "settings": "initial screen, complete agglomeration method", "text": "TALEN-engineered isogenic human iPSCs that were either WT (wild-type) or N1^+/− were derived and characterized as detailed in Theodoris et al., Cell. 2015; 160:1072-1086. Isogenic iPSCs (induced pluripotent stem cells) were differentiated into ECs as previously described (Theodoris et al., 2015; White et al., Stem Cells. 2012; 31:92-103). On day 13 of the differentiation process, ECs were greater than 90% double-positive for CD31 (BD #558068) and CD144 (#FAB9381P) by FACS (fluorescence-activated cell sorting) analysis (FIGS. 9G-H). Small molecule experiments (described below) were conducted at day 15 of differentiation.\nStarting on day 15 of differentiation, WT ECs were exposed to 10 μM DMSO (dimethyl sulfoxide) (n=80) while isogenic N1^+/− ECs were exposed to either 10 μM DMSO (n=80) or one of the small molecules from the LOPAC (1280 molecules) (Sigma LO1280) or Sheng Ding (315 molecules) chemical libraries. DMSO or small molecules were renewed with EC media (ScienCell #1001) changes on alternating days until the cells were ultimately collected for analysis on day 21. ECs were imaged using the IN Cell Analyzer on day 21 to evaluate morphology and cell death; wells with extensive cell death were eliminated from final analyses. For validation experiments, promising small molecules identified from the initial screen were applied to N1^+/− ECs in duplicate or triplicate along with controls of DMSO-exposed WT and N1^+/− ECs (n=4 each) using the same process as the initial screen described above.\nECs were lysed and RNA was isolated using the Qiagen RNeasy 96-well purification kit. RNA was diluted so that it was between the 10 pg-1 ng range accepted by the Cellular Research Precise targeted RNA-seq (RNA sequencing) system. Targeted RNA-seq libraries were prepared as per the Cellular Research Precise protocol (Rev 03092015), which includes both molecule and sample barcoding. The selected 119 target genes (see Table 1) included 3 low-expressing housekeeping genes for normalization (CHMP2A, C1orf43, REEP5) and either predicted central regulatory nodes or peripheral genes positioned within varied regions of the N1 network to permit identification of small molecules that affected central nodes as well as those that may have a synergistic effect in combination due to regulating different aspects of the network. Briefly, RNA was added to the Precise Encoding Plate containing indexed dT primer, dNTPs, and Spike-in mRNA controls and incubated at 65° C. for 3 minutes followed by cooling on ice. A master-mix of RT enzyme, RNase inhibitor, and buffer was then added to the samples, and they were incubated at 42° C. for 30 minutes followed by 80° C. for 5 minutes. Each plate of samples was combined into a single 2 ml tube and purified with AMPureXP beads. N1 PCR master-mix was added and samples were incubated for 94° C. for 2 minutes, followed by 15 cycles of 94° C. for 30 seconds, 55° C. for 3 minutes, and 68° C. for 1 minute, followed by 68° C. for 7 minutes. Samples were purified with AMPureXP beads and N2 PCR master-mix was added. Samples were incubated with the same thermal cycler program as above for 12 cycles. These final libraries were then purified with AMPureXP beads and analyzed for quality and concentration by Agilent Bioanalyzer and Illumina Library Quantification Kit (KAPA Biosystems), respectively. Libraries were normalized to equivalent concentration and pooled for paired-end 100 bp sequencing on an Illumina HiSeq 2500 instrument.\nSequencing data was analyzed using Cellular Research Precise Analysis Pipeline on the SevenBridges platform, which included analyzing sequencing quality with FASTQC, trimming adapters and filtering reads, demultiplexing based on sample barcodes, aligning reads with Bowtie 2, and determining the number of unique molecular indices per gene. Network inference was based on mutual information of gene expression from all DMSO- and small molecule-exposed samples as described in Margolin et al., BMC Bioinformatics. […]"}, "N1^+/− ECs": {"system": "N1^+/− ECs", "experiment": "Whole transcriptome RNA-seq of N1^+/− ECs treated with network-correcting molecules", "format": "cell-based, human", "settings": "for repressive effect on cadherin-11 mRNA expression: FIG. 9A; for restoration of the N1-dependent network as a whole: FIGS. 2E, 3A", "procedure": "ECs were lysed and RNA was isolated using the Qiagen RNeasy Micro purification kit. RNA-seq libraries were constructed using the Clontech SMRTer Stranded RNA-seq Library Prep Kit for Illumina per kit protocol. Libraries were analyzed by Agilent Bioanalyzer, normalized to equivalent concentration, pooled, gel purified, and sequenced 75 bp paired-end on an Illumina NextSeq instrument with 10% PhiX.\nSequencing quality was assessed with FASTQC (located on the web by placing “www.” in front of “bioinformatics.babraham.ac.uk/projects/fastqc/”). Reads were aligned to the hg19 (Homo sapiens assembly February 2009) transcriptome and genome using the Spliced Transcripts Alignment to a Reference (STAR) Aligner (Dobin et al., Bioinformatics. 2012; 29:15-21) and differential expression was analyzed using Cuffdiff (Trapnell et al., Nat Biotechnol. 2012; 31:46-53). HOPACH was used for clustering with the correlation metric (van der Laan and Pollard; located on the web by placing “www.” in front of “bioconductor.org/packages/devel/bioc/manuals/hopach/man/hopach.pdf”. GO analyses were completed using GO-Elite and ToppGene (Chen et al., Nucleic Acids Research. 2009; 37:W305-W311; Zambon et al., Bioinformatics. 2012; 28:2209-2210). Network diagrams were generated using NetworkX (Hagberg et al., SciPy. 2008) based on network connections inferred from mRNA-seq gene expression of isogenic N1^+/− compared to WT ECs with colors based on whole transcriptome RNA-seq gene expression of DMSO- vs small molecule-treated WT and N1^+/− ECs."}}, "note": "Entries after “also recorded” stand apart in the source; their conditions may differ.", "data": [{"molecule": "CCN1/C(=C/C(C)=O)Sc2ccc(OC)cc21", "note": "[TG003, (Z)-1-(3-ethyl-5-methoxy-2,3-dihydrobenzothiazol-2-ylidene)propan-2-one]", "values": [{"measurement": "hierarchical clustering of transcriptional profile of treated N1-haploinsufficient ECs with WT ECs", "setting": "N1^+/− iPSC-derived ECs", "value": "cluster with WT ECs"}, {"measurement": "repression of genes aberrantly activated in N1-haploinsufficient ECs", "setting": "N1^+/− ECs; FIG. 2A", "value": "broadly effective at repressing these genes, albeit to a lesser degree"}, {"measurement": "repressive effect on cadherin-11 mRNA expression", "setting": "N1^+/− ECs", "value": "strongest repressive effect"}, {"measurement": "restoration of the N1-dependent network as a whole", "setting": "N1^+/− ECs", "value": "strong restorative effect"}]}, {"molecule": "COc1cc(/C=C(\\C#N)C(=O)Nc2nnc(C(F)(F)F)s2)ccc1OCc1ccc(C(F)(F)F)cc1C(F)(F)F", "note": "[XCT790, 2E-3-(4-{[2,4-bis(trifluoromethyl)benzyl]oxy}-3-methoxyphenyl)-2-cyano-N-[5-(trifluoromethyl)-1,3,4-thiadiazol-2-yl]acrylamide]", "values": [{"measurement": "hierarchical clustering of transcriptional profile of treated N1-haploinsufficient ECs with WT ECs", "setting": "N1^+/− iPSC-derived ECs", "value": "cluster with WT ECs"}, {"measurement": "repression of genes aberrantly activated in N1-haploinsufficient ECs", "setting": "N1^+/− ECs; FIG. 2A", "value": "most effective at repressing genes aberrantly activated in N1-haploinsufficient ECs"}, {"measurement": "restoration of transcription of genes repressed in N1-haploinsufficient ECs", "setting": "N1^+/− ECs; FIG. 2A", "value": "effectively restored the transcription of mesoderm and cell cycle checkpoint genes"}, {"measurement": "correlation of gene expression of treated N1^+/− ECs with WT ECs", "setting": "N1^+/− ECs; FIG. 2B", "value": "correlated most strongly; also recorded: correlate most strongly with WT ECs"}, {"measurement": "restorative effect on regulatory nodes SOX7 and TCF4", "setting": "N1^+/− ECs; FIG. 2D", "value": "strongest restorative effect"}, {"measurement": "repressive effect on cadherin-11 mRNA expression", "setting": "N1^+/− ECs", "value": "strongest repressive effect"}, {"measurement": "restoration of the N1-dependent network as a whole", "setting": "N1^+/− ECs", "value": "most effective at restoring both aberrantly activated and repressed genes; also recorded: corrected the greatest number of genes to the greatest degree; also recorded: strongest restorative effect on central regions of the network"}]}]}
